Measured values from ChEMBL document CHEMBL1201862, “PubChem BioAssay data set” (2004).
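How tested: cells in 96-well plates exposed to compound for 48 hours at five concentrations. GI50 = concentration required for 50% inhibition of growth.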 The source made the active and inactive calls. Cut-off read from the data, not from the text of the source: active = GI50 up to about 1.1 µM and inactive = higher.

What was measured:
Experiment in all cases: NCI tumour cell line growth inhibition, 48 h
MDA-MB-231 = system: MDA-MB-231
SN12C = system: SN12C
NCI-H23 = system: NCI-H23
SK-MEL-2 = system: SK-MEL-2
UACC-62 = system: UACC-62
HOP-62 = system: HOP-62
SK-MEL-5 = system: SK-MEL-5
NCI-H460 = system: NCI-H460
NCI-H522 = system: NCI-H522
SF-268 = system: SF-268
KM12 = system: KM12
COLO 205 = system: COLO 205
OVCAR-4 = system: OVCAR-4
DU-145 = system: DU-145
TK-10 = system: TK-10
T47D = system: T47D
SW-620 = system: SW-620
EKVX = system: EKVX
HCC 2998 = system: HCC 2998
RPMI-8226 = system: RPMI-8226

Measured: GI50

CC(=O)n1c(COS(C)(=O)=O)nc2ccccc21
inactive: MDA-MB-231 > 100 µM | SN12C > 100 µM | NCI-H23 > 100 µM | SK-MEL-2 > 100 µM | UACC-62 > 100 µM | HOP-62 50.2 µM | SK-MEL-5 > 100 µM | NCI-H460 > 100 µM | NCI-H522 > 100 µM | SF-268 > 100 µM | KM12 > 100 µM | COLO 205 > 100 µM | OVCAR-4 > 100 µM | DU-145 > 100 µM | TK-10 > 100 µM | T47D > 100 µM | SW-620 > 100 µM | EKVX > 100 µM | HCC 2998 > 100 µM

Cc1ccc(NC(=O)c2cccc(OP(=O)(Nc3ccc(C)cc3)Nc3ccc(C)cc3)c2)cc1
inactive: MDA-MB-231 3.32 µM | SN12C 16.3 µM | NCI-H23 10.9 µM | SK-MEL-2 15.3 µM | UACC-62 20.3 µM | HOP-62 28.7 µM | SK-MEL-5 13.2 µM | NCI-H460 3.88 µM | NCI-H522 2.78 µM | SF-268 43.1 µM | KM12 5.5 µM | COLO 205 2.32 µM | OVCAR-4 14 µM | DU-145 53.3 µM | TK-10 7.52 µM | T47D 5.53 µM | SW-620 8.18 µM | EKVX 7.94 µM | HCC 2998 5.21 µM

CC(C)CCc1n[nH]c(=O)n1/N=C\c1ccccc1
inactive: MDA-MB-231 > 100 µM | SN12C > 100 µM | NCI-H23 > 100 µM | SK-MEL-2 93.1 µM | UACC-62 > 100 µM | HOP-62 > 100 µM | SK-MEL-5 > 100 µM | NCI-H460 > 100 µM | NCI-H522 85.7 µM | SF-268 > 100 µM | KM12 > 100 µM | COLO 205 > 100 µM | OVCAR-4 > 100 µM | DU-145 > 100 µM | TK-10 > 100 µM | T47D > 100 µM | SW-620 > 100 µM | EKVX > 100 µM | HCC 2998 > 100 µM

O=c1c2c3c(sc2nc2n1N=C(c1ccc(Cl)cc1)CS2)CCCC3
inactive: MDA-MB-231 > 100 µM | SN12C > 100 µM | NCI-H23 > 100 µM | UACC-62 > 100 µM | HOP-62 > 100 µM | RPMI-8226 > 100 µM | SK-MEL-5 > 100 µM | NCI-H460 > 100 µM | NCI-H522 > 100 µM | SF-268 > 100 µM | KM12 > 100 µM | COLO 205 > 100 µM | OVCAR-4 > 100 µM | DU-145 > 100 µM | TK-10 > 100 µM | T47D > 100 µM | SW-620 > 100 µM | EKVX > 100 µM | HCC 2998 > 100 µM

CC1(C)CC[C@]2(C(=O)O)CC[C@]3(C)C(=CC[C@@H]4[C@@]5(C)CC[C@@H]6OC(C)(C)OC[C@@]6(C)[C@@H]5CC[C@]43C)[C@H]2C1
inactive: MDA-MB-231 3.04 µM | SN12C 3.13 µM | NCI-H23 3.91 µM | SK-MEL-2 17.3 µM | UACC-62 10.4 µM | HOP-62 10.1 µM | RPMI-8226 6 µM | NCI-H460 5.46 µM | NCI-H522 7.71 µM | SF-268 8.04 µM | COLO 205 11.3 µM | OVCAR-4 3.05 µM | DU-145 9.86 µM | TK-10 11.6 µM | T47D 13.9 µM | SW-620 14.5 µM | EKVX 5.08 µM | HCC 2998 13.2 µM

COc1ccc(N2C(=O)c3cccnc3S2(=O)=O)cc1
inactive: MDA-MB-231 > 100 µM | SN12C > 100 µM | NCI-H23 > 100 µM | SK-MEL-2 > 100 µM | UACC-62 > 100 µM | HOP-62 > 100 µM | RPMI-8226 > 100 µM | NCI-H460 > 100 µM | NCI-H522 > 100 µM | SF-268 > 100 µM | KM12 > 100 µM | COLO 205 > 100 µM | OVCAR-4 > 100 µM | DU-145 > 100 µM | T47D > 100 µM | SW-620 > 100 µM | EKVX > 100 µM | HCC 2998 > 100 µM

NC1=NC(NCC2(CO)CCC2)=CC(OCC2(CO)CCC2)N1 (configuration not stated)
inactive: MDA-MB-231 > 100 µM | SN12C > 100 µM | NCI-H23 26.2 µM | SK-MEL-2 > 100 µM | UACC-62 > 100 µM | HOP-62 > 100 µM | RPMI-8226 > 100 µM | SK-MEL-5 79.3 µM | NCI-H460 > 100 µM | NCI-H522 > 100 µM | SF-268 > 100 µM | KM12 > 100 µM | COLO 205 > 100 µM | OVCAR-4 > 100 µM | DU-145 > 100 µM | T47D 62.2 µM | SW-620 > 100 µM | EKVX > 100 µM | HCC 2998 > 100 µM

O=C(N/N=C1\CCc2ccccc21)N/N=C1\CCc2ccccc21
inactive: MDA-MB-231 12.9 µM | SN12C > 100 µM | NCI-H23 > 100 µM | SK-MEL-2 > 100 µM | UACC-62 > 100 µM | HOP-62 > 100 µM | RPMI-8226 > 100 µM | SK-MEL-5 > 100 µM | NCI-H460 > 100 µM | NCI-H522 > 100 µM | SF-268 > 100 µM | KM12 > 100 µM | COLO 205 > 100 µM | DU-145 > 100 µM | TK-10 > 100 µM | T47D > 100 µM | SW-620 > 100 µM | HCC 2998 > 100 µM

S=C(N/N=C\C=N/NC(=S)N1CCCCCC1)N1CCCCCC1
inactive: MDA-MB-231 > 31.5 µM | SN12C > 100 µM | NCI-H23 > 31.1 µM | SK-MEL-2 17.1 µM | UACC-62 21.2 µM | HOP-62 9.12 µM | RPMI-8226 > 100 µM | SK-MEL-5 14.2 µM | NCI-H460 3.93 µM | NCI-H522 8.07 µM | SF-268 10.5 µM | KM12 18.7 µM | COLO 205 15.9 µM | DU-145 9.31 µM | TK-10 57.9 µM | T47D 1.44 µM | SW-620 6.78 µM | EKVX > 57.3 µM | HCC 2998 > 64.9 µM

CCCCC(=O)N/S(=N/C(=O)c1ccccc1)C(Cl)(Cl)Cl (configuration not stated)
inactive: MDA-MB-231 > 100 µM | SN12C > 100 µM | NCI-H23 > 100 µM | SK-MEL-2 > 100 µM | UACC-62 > 100 µM | HOP-62 > 100 µM | RPMI-8226 > 100 µM | SK-MEL-5 > 100 µM | NCI-H460 > 100 µM | SF-268 > 100 µM | KM12 > 100 µM | COLO 205 > 100 µM | OVCAR-4 > 100 µM | DU-145 > 100 µM | TK-10 > 100 µM | T47D > 100 µM | SW-620 > 100 µM | EKVX > 100 µM | HCC 2998 > 100 µM
